{"source": "patent US20160051665A1", "about": "“INDUCTION OF IMMUNE RESPONSE” (priority 2010, published 2016)", "key": {"[1]": {"tested_on": "HBV-containing HepG2.2.15 cells", "assay": "interferon-γ ELISpot: peptide-primed CTLs against BuCas-treated target cells", "type": "cell-based, human", "conditions": "BuCas 1 mg/ml twice at 3 day interval, FIG. 2B", "method": "Heparinized blood from healthy HLA-A2 donors was purchased from Research Blood Components, LLC, (Brighton, Mass.). Peripheral blood mononuclear cells were purified and cultured as described (13, 21). After initial stimulation with synthetic peptide, T cells were re-stimulated with CD4/CD8 T cell depleted autologous monocytes pulsed with synthetic peptide at 10 μg/ml for 5 days. IL-2 treatment and in vitro re-stimulation were repeated thrice prior to use of in vitro expanded T cells in ELISpot assays.\nIn vitro expanded CTLs were used as effectors in ELISpot assays to assess antigen stimulated interferon-γ release according to the manufacturer's instructions (BD-Pharmingen, San Jose, Calif.). Target cells were HepG2 human hepatoma cells (HBV negative; American Type Culture Collection) or HBV-containing HepG2.2.15 cells (22). […]\nPeptides presented on the surface of a cell in the context of the MHC class I complex should be recognized with high sensitivity upon incubation with cognate peptide-primed CTLs, with specific killing of the target cells. […] Target cell recognition was quantified by interferon-γ ELISpot assay.\nThe ability of in vitro generated CTLs to recognize and secrete interferon-γ was evaluated by ELISpot assay. […] The P value was calculated from a Student's t-Test analysis of experimental results."}, "[2]": {"target": "T1, glucosidase I (Homo sapiens, UniProt Q13724)", "T1 sequence (Q13724 1-837)": "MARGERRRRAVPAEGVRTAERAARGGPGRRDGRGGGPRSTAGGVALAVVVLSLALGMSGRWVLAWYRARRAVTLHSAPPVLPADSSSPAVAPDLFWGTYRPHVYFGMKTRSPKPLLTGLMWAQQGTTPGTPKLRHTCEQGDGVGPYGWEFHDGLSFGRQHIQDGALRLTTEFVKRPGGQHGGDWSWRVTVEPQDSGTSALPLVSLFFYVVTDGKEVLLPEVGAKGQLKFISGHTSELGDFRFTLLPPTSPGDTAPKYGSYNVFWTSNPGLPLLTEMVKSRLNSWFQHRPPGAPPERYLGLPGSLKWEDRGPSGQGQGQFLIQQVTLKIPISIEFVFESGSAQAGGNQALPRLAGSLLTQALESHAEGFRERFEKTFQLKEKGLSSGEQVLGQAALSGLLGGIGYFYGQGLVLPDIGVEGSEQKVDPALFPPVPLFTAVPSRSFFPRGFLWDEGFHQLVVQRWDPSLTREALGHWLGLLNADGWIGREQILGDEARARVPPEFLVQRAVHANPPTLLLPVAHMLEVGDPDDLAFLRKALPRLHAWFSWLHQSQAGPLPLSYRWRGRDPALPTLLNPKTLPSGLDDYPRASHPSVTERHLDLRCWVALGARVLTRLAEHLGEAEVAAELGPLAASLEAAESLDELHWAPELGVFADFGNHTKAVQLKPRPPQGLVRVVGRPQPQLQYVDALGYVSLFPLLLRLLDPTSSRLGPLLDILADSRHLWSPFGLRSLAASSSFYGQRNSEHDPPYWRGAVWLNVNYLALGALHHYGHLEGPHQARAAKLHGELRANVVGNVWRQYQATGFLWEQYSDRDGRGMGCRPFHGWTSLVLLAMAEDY", "conditions": "cited from earlier work"}, "[3]": {"tested_on": "glucosidases", "assay": "glycan analysis of serum: tri-glucosylated glycans (Glu3)", "type": "in vivo, woodchuck", "method": "Sample preparation for glycan analysis was performed essentially as described (27). HPLC separation was performed using the Waters Alliance HPLC system with a Waters fluorescence detector, and quantified using the Millenium Chromatography Manager (Waters Corporation, Milford, Mass.). Tri-glucosylated structures were identified by comparison to known standards (27, 28).\nIn vivo, levels of circulating glycoproteins with N-glycans bearing three terminal glucose residues reflect the extent of glucosidase inhibition (11). […] Note that BuCas-treated animals that were negative for tri-glucosylated glycans at the 10-week time point were positive at one or more other time points (data not shown). No tri-glucosylated glycans were detected in any drug-naïve animals (Table 2)."}}}
{"smiles": "CCCC(=O)O[C@H]1CN2CC[C@H](O)[C@@H]2[C@@H](O)[C@H]1O", "note": "[BuCas, 6-O-butanoyl castanospermine]", "values": [{"measurement": "presentation of the D-peptide epitope by target cells", "setting": "[1]; CTLs primed with D-peptide", "value": "increased significantly"}, {"measurement": "presentation of the N-peptide epitope by target cells", "setting": "[1]; CTLs primed with N-peptide", "value": "reduced"}, {"measurement": "potency as inhibitor of glucosidase I relative to deoxynojirimycin", "setting": "[2]", "value": "more potent inhibitors of glucosidase I than deoxynojirimycin"}, {"measurement": "glycan processing (tri-glucosylated glycans in sera), in words", "setting": "[3]; sera of treated woodchucks", "value": "impaired glycan processing"}, {"measurement": "Glu3, % (tri-glucosylated glycans in serum)", "setting": "[3]; week 10", "value": ".49 (0-.90) %"}]}
